In US11673869B2, “4-oxazolidinone antimicrobial agents” (NORTH CAROLINA STATE UNIVERSITY, priority 2016, dated 2023):
≈ marks a conversion by molar mass, not a printed value.

Tests used:
S. aureus = test: Broth microdilution MIC determination, S. aureus; format: cell-based, Staphylococcus aureus; conditions: minimum inhibitory concentration, recorded after 16 h, unit assumed
[1] = tested on: MRSA (ATCC 33591) methicillin-resistant Staphylococcus aureus; test: Broth microdilution MIC determination, MRSA; format: cell-based; conditions: minimum inhibitory concentration, MRSA ATCC 33591, Mueller-Hinton broth, 37° C., recorded after 16 h; unit assumed
Experimental: (§1) Broth microdilution protocol for minimum inhibition concentration (MIC) determination. Fresh Mueller-Hinton broth (MHB) ˜3 ml, was inoculated (5×10^5 CFU mL^−1) with MRSA (ATCC 33591) methicillin-resistant Staphylococcus aureus. The resulting bacterial suspension was aliquoted (1 mL) into culture tubes and test compound (10 mM DMSO stock solution) was added to reach the final concentration of the interest. Bacteria not treated with the antimicrobial compound served as the control. Rows 2-12 of a 96-well microtiter plate were filled with remaining bacterial subcultures. The samples containing test compound were aliquoted (200 μL) into the first row wells of the microtiter plate (2 wells per compound). Row 1 wells were mixed 6-8 times and 100 μL was transferred down to row 2. Row 2 wells were mixed 6-8 times, followed by a 100 μL transfer from row 2 down to row 3. The rest of the rows of the plate were serially diluted in similar fashion. The plate was covered with sealing tape for 96-well plates (ThermoFisher) and incubated under stationary conditions at 37° C. A duplicate of the plate was prepared.
(§2) MIC values for vancomycin, linezolid, and tetracycline are included in Table 1 for purposes of comparison.

A. baumannii = test: Broth microdilution MIC determination, A. baumannii; format: cell-based, Acinetobacter baumannii; conditions: minimum inhibitory concentration, recorded after 16 h, unit assumed
Experimental: [The procedure below names another organism; the source lists this organism under the same test.] as §1, §2

Row | Compound | MIC S. aureus (S. aureus) [µg/mL] | MIC MRSA [1] [µg/mL] | MIC A. baumannii (A. baumannii) [µg/mL]
1 | CCCC[C@@H]1O/C(=C/C(=O)CCC)NC1=O [Compound 5, (S,E)-5-Butyl-2-(2-oxopentylidene)oxazolidin-4-one] | 16 (≈ 71 µM) | 16 (≈ 71 µM) | > 50
2 | CCCC[C@@H]1O/C(=C/C(C)=O)NC1=O [Compound 6, (S,E)-5-Butyl-2-(2-oxopropylidene)oxazolidin-4-one] | 128 (≈ 649 µM) | > 128 | 
3 | CCCCCCCCCC(=O)/C=C1\NC(=O)[C@H](Cc2ccccc2)O1 [Compound 12, (S,E)-5-benzyl-2-(2-oxoundecylidene)oxazolidin-4-one] | 4 (≈ 11.6 µM) | 0.5 (≈ 1.46 µM) | 
4 | CCCCCCCCCC(=O)/C=C1\NC(=O)[C@H](c2ccccc2)O1 [Compound 15, (S,E)-2-(2-oxoundecylidene)-5-phenyloxazolidin-4-one] | 2 (≈ 6.07 µM) | 1 (≈ 3.04 µM) | > 128
5 | CC(C)[C@@H]1O/C(=C/C(=O)Cc2ccccc2)NC1=O [Compound 16, (S,E)-5-isopropyl-2-(2-oxo-3-phenylpropylidene)oxazolidin-4-one] |  | 2 (≈ 7.71 µM) | 
6 | CC(C)[C@@H]1O/C(=C/C(=O)C(c2ccccc2)c2ccccc2)NC1=O [Compound 17, (S,E)-5-isopropyl-2-(2-oxo-3,3-diphenylpropylidene)oxazolidin-4-one] |  | 0.5 (≈ 1.49 µM) | 
7 | COC(=O)CCCC(=O)/C=C1\NC(=O)[C@H](C(C)C)O1 [Compound 18, methyl (S,E)-6-(5-isopropyl-4-oxooxazolidin-2-ylidene)-5-oxohexanoate] |  | 32 (≈ 119 µM) | 
8 | C#CCCCCC(=O)/C=C1\NC(=O)[C@H](C(C)C)O1 [Compound 19, (S,E)-5-isopropyl-2-(2-oxooct-7-yn-1-ylidene)oxazolidin-4-one] |  | 16 (≈ 64.2 µM) | 
9 | CC(=O)/C=C1\NC(=O)[C@H](C)O1 [Compound 20, (S,E)-5-methyl-2-(2-oxopropylidene)oxazolidin-4-one] | > 128 | > 128 | 
10 | CC(C)[C@@H]1O/C(=C/C(=O)Cc2ccc(-c3ccccc3)cc2)NC1=O [Compound 23, (S,E)-2-(3-([1,1′-biphenyl]-4-yl)-2-oxopropylidene)-5-isopropyloxazolidin-4-one] | 0.25 (≈ 0.745 µM) | 0.125 (≈ 0.373 µM) | 
11 | CC(C)[C@@H]1O/C(=C/C(=O)Cc2ccc(Br)cc2)NC1=O [Compound 24, (S,E)-2-(3-(4-bromophenyl)-2-oxopropylidene)-5-isopropyloxazolidin-4-one] | 1 (≈ 2.96 µM) | 0.5 (≈ 1.48 µM) | 
12 | CC(=O)NC[C@H]1CN(c2ccc(N3CCOCC3)c(F)c2)C(=O)O1 [linezolid, reference compound] | 0.5 (≈ 1.48 µM) | 1 (≈ 2.96 µM) | > 100
13 | CN(C)[C@@H]1C(O)=C(C(N)=O)C(=O)[C@@]2(O)C(O)=C3C(=O)c4c(O)cccc4[C@@](C)(O)[C@H]3C[C@@H]12 [tetracycline, reference compound] | 0.25 (≈ 0.563 µM) |  | 2 (≈ 4.5 µM)
14 | CN[C@H](CC(C)C)C(=O)N[C@H]1C(=O)N[C@@H](CC(N)=O)C(=O)N[C@H]2C(=O)N[C@H]3C(=O)N[C@H](C(=O)N[C@H](C(=O)O)c4cc(O)cc(O)c4-c4cc3ccc4O)[C@H](O)c3ccc(c(Cl)c3)Oc3cc2cc(c3O[C@@H]2O[C@H](CO)[C@@H](O)[C@H](O)[C@H]2O[C@H]2C[C@](C)(N)[C@H](O)[C@H](C)O2)Oc2ccc(cc2Cl)[C@H]1O [vancomycin, reference compound] | 1 (≈ 0.69 µM) | 1 (≈ 0.69 µM) | > 100

Other lines, results leading:

Row | MIC S. aureus (S. aureus) [µg/mL] | MIC MRSA [1] [µg/mL] | MIC A. baumannii (A. baumannii) [µg/mL] | Compound
15 | 1 (≈ 3.11 µM) | 0.5 (≈ 1.56 µM) | > 50 | CCCCCCC/C(C)=C/C(=O)/C=C1\NC(=O)[C@H](CCCC)O1 [Compound 1, (S)-Lipoxazolidinone A]
16 | 4 (≈ 12.4 µM) | 1 (≈ 3.11 µM) |  | CCCCCCC/C(C)=C/C(=O)/C=C1\NC(=O)[C@@H](CCCC)O1 [Compound 2, (R)-Lipoxazolidinone A]
17 | 0.5 (≈ 1.63 µM) | 0.125 (≈ 0.407 µM) | > 50 | CCCCCCC/C=C/C(=O)/C=C1\NC(=O)[C@H](CCCC)O1 [Compound 3, (S,E)-5-Butyl-2-((E)-2-oxoundec-3-en-1-ylidene)oxazolidin-4-one]
18 | 2 (≈ 6.46 µM) | 0.25 (≈ 0.808 µM) |  | CCCCCCCCCC(=O)/C=C1\NC(=O)[C@H](CCCC)O1 [Compound 4, (S,E)-5-Butyl-2-(2-oxoundecylidene)oxazolidin-4-one]
19 | 128 (≈ 325 µM) | 16 (≈ 40.6 µM) |  | CCCCCCCCCCCCCCCC(=O)/C=C1\NC(=O)[C@H](CCCC)O1 [Compound 7, (S,E)-5-Butyl-2-(2-oxoheptadecylidene)oxazolidin-4-one]
20 | 128 (≈ 393 µM) | 64 (≈ 197 µM) |  | CCCCCCCCCC(=O)/C=C1\NC(=S)[C@H](CCCC)O1 [Compound 8, (S,E)-1-(5-butyl-4-thioxooxazolidin-2-ylidene)undecan-2-one]
21 | 0.5 (≈ 1.62 µM) | 0.0675 (≈ 0.218 µM) | > 128 | CCCCCCCCCC(=O)/C=C1\NC(=O)[C@H](CC(C)C)O1 [Compound 9, (S,E)-5-isobutyl-2-(2-oxoundecylidene)oxazolidin-4-one]
22 | 0.5 (≈ 1.62 µM) | 0.0675 (≈ 0.218 µM) | > 128 | CCCCCCCCCC(=O)/C=C1\NC(=O)[C@H]([C@@H](C)CC)O1 [Compound 10, (S,E)-5-((S)-sec-butyl)-2-(2-oxoundecylidene)oxazolidin-4-one]
23 | 0.5 (≈ 1.69 µM) | 0.0338 (≈ 0.114 µM) | > 64 | CCCCCCCCCC(=O)/C=C1\NC(=O)[C@H](C(C)C)O1 [Compound 11, (S,E)-5-isopropyl-2-(2-oxoundecylidene)oxazolidin-4-one]
24 | 4 (≈ 15.8 µM) | 2 (≈ 7.89 µM) |  | CCCCCCCCCC(=O)/C=C1\NC(=O)CO1 [Compound 13, (E)-2-(2-Oxoundecylidene)oxazolidin-4-one]
25 | 1 (≈ 3.74 µM) | 0.8 (≈ 2.99 µM) |  | CCCCCCCCCC(=O)/C=C1\NC(=O)[C@H](C)O1 [Compound 14, (S,E)-5-Methyl-2-(2-oxoundecylidene)oxazolidin-4-one]
26 | 0.5 (≈ 1.62 µM) | 0.0675 (≈ 0.218 µM) |  | CCCCCCCCCC(=O)/C=C1\NC(=O)[C@H](C(C)(C)C)O1 [Compound 21, (S,E)-5-(tert-butyl)-2-(2-oxoundecylidene)oxazolidin-4-one]
27 | 2 (≈ 7.11 µM) | 1 (≈ 3.55 µM) |  | CCCCCCCCCC(=O)/C=C1\NC(=O)[C@H](CC)O1 [Compound 22, (S,E)-5-ethyl-2-(2-oxoundecylidene)oxazolidin-4-one]
